In a compilation of properties of binary mixtures (doi:10.1021/acs.jpcb.9b04724):

Assay: xn = mol fraction of the nth substance listed
Conditions: 101 kPa

CC[n+]1ccn(C)c1.N#C[N-]C#N + CCCC[N+](C)(CCCC)CCCC.N#C[N-]C#N
x1 = 1
Conditions	viscosity [mPa·s]
293.15 K	17.41
313.15 K	10.05
333.15 K	6.65

CCCC[N+](C)(CCCC)CCCC.N#C[N-]C#N + CC[n+]1ccn(C)c1.N#C[N-]C#N
viscosity [mPa·s]
Conditions	293.15 K	303.15 K	313.15 K	323.15 K	333.15 K	343.15 K	353.15 K
x2 = 0	498	239	127.3	74.9	47.6	32	22.6
x2 = 0.2114	201	–	65.2	42.1	28.7	–	–
x2 = 0.3975	101.3	60.6	39.2	26.8	–	14.44	–
x2 = 0.6047	50.5	–	22.87	16.69	12.65	10.13	8.18
x2 = 0.8003	28.3	19.8	14.56	11.15	9.11	7.26	5.93
